From patent US11130960B2, “Methods for conferring or enhancing herbicide resistance on plants and/or alga with protoporphyrinogen oxidase variants” (FARM HANNONG CO., LTD., priority 2014, dated 2021)

Legend:
[1] = tested on: CyPPO2; assay: Growth inhibition of transformed PPO-deficient E. coli BT3(ΔPPO) on LB agar medium; format: cell-based, Oscillatoria nigro-viridis PCC 7112; settings: 37° C., 16~20 hours
Excerpt: (§1) To test herbicide resistance of CyPPO2, CyPPO4, CyPPO8 and CyPPO12 isolated in Example 1, PPO-deficient BT3 E. coli [hereinafter, referred to as BT3(ΔPPO)] was transformed with CyPPO2, CyPPO4, CyPPO8 or CyPPO12 gene, respectively and then cultured in the presence of herbicides to examine growth inhibition of the transformed E. coli. As a negative control, Arabidopsis thaliana-derived wild-type PPO (wild-type AtPPO1) was used, and wild-type AtPPO1 has sensitivity to PPO-based herbicides and its sequence information is available in GeneBank accession no. AX084732 (a nucleotide sequence of the gene is represented by SEQ ID NO: 10, and an amino acid sequence thereof is represented by SEQ ID NO: 9). As a positive control, Mutant AtPPO1 was used, in which amino acid replacements of Y426M (replacement of tyrosine by methionine at position 426) and S305L (replacement of serine by leucine at position 305) occur in the amino acid sequence of the wild-type AtPPO1 (an amino acid sequence is represented by SEQ ID NO: 11) (Li X, Volrath S L., N D B. G., Chilcott C E, Johnson M A, Ward E R, Law M D (2003) Development of protoporphyrinogen oxidase as an efficient selection marker for Agrobacterium tumefaciens-mediated transformation of maize. Plant physiology 133:736-747).
(§2) BT3(ΔPPO) strain was provided by Hokkaido University (Japan) and it is an E. coli strain which is deficient in hemG-type PPO and has Kanamycin resistance (Watanabe et al., (2001) Dual targeting of spinach protoporphyrinogen oxidase II to mitochondria and chloroplasts by alternative use of two in-frame […] codons. JBC 2047420481).
(§3) HVE-50 autoclave from Hirayama, HS2100A electronic scale from Hansung Instrument, CB-30V clean bench from Jeio Tech, JSI-200CL incubator from JSR, 1210 type UV-visible spectrophotometer from Thermo Fisher Scientific, MQ-200 photometer from Apogee, and Bio-Rad MyCycler as PCR machine were used. The autoclave was used under conditions of 121° C. and 15 minutes, and the incubator was used at 37° C. with lighting of 160˜200 μmol m^−2 s^−1 for a culture time of 14˜20 hours. LB medium (10 g/L of Bacto-Tryptone, 5 g/L of Yeast extract, 10 g/L of sodium chloride, 15 g/L of Bacto agar) and an antibiotic Chloramphenicol (Duchefa) were used.
(§4) To clone each of the CyPPO2, CyPPO4, CyPPO8 and CyPPO12 genes isolated and amplified in Example 1 into pACBB (its structure is shown in FIG. 2), 10 μl of a solution containing 4 μl of each PPO gene, […], 1 μl of 10× buffer A, 1 μl of 10× buffer B, 1 μl of ligase (RBC, 3 unit/μl) was prepared and allowed to react at 22° C. for 30 minutes. The reaction solution was added to 100 μl of DH5 alpha competent cells, and allowed to react on ice for 20 minutes and then left at 42° C. for 40 seconds. Thereafter, the cells were left on ice for 2 minutes, and then 1 ml of LB broth was added thereto, followed by incubation with shaking at 37° C. for 1 hour. The strains having each gene insert in the culture medium were harvested, and then cultured on LB agar medium containing chloramphenicol.
(§5) For seed culture of E. coli transformed with respective genes, single colonies thereof were cultured in 3 ml of LB broth containing chloramphenicol overnight, and each 100 μl thereof was sub-cultured in 3 ml of fresh LB broth until absorbance (OD600) reached 0.5˜1. They were diluted with LB broth to absorbance (OD600) of 0.5. 10-fold dilution of this diluted solution was performed with LB broth five times. Next, 10 μl of the diluted solution of the transformed E. coli culture was dropped on LB agar medium (petri dish) containing chloramphenicol and a variety of herbicide stocks at different concentrations (0˜400 μM). The LB agar plates were incubated at 37° C. At 16˜20 hours after culture, growth inhibition was examined with the naked eye. Further, growth inhibition of the strains cultured in a medium containing Tiafenacil was examined under light (lighting of 169 μmol m^−2s^−1) and dark conditions.

[2] = tested on: CyPPO8; assay: as above; format: cell-based, Halothece sp. PCC 7418; settings: 37° C., 16~20 hours
Excerpt: as §1, §2, §3, §4, §5

| Compound | concentration at which growth inhibition was hardly observed [1] [µM] | concentration at which growth inhibition was hardly observed [2] [µM] |
| --- | --- | --- |
| O=C(O)c1cc(Oc2ccc(C(F)(F)F)cc2Cl)ccc1[N+](=O)[O-] [Acifluorfen] | 400 | 400 |
| CCOc1cc(Oc2ccc(C(F)(F)F)cc2Cl)ccc1[N+](=O)[O-] [Oxyfluorfen] | 400 | 400 |
| COC(=O)CCNC(=O)C(C)Sc1cc(-n2c(=O)cc(C(F)(F)F)n(C)c2=O)c(F)cc1Cl (centres unmarked) [Tiafenacil] | 25 | 25 |
| COC(=O)CSc1cc(/N=c2\sc(=O)n3n2CCCC3)c(F)cc1Cl [Fluthiacet-methyl] | 400 | 400 |
| CC(C)Oc1cc(-n2nc(C(C)(C)C)oc2=O)c(Cl)cc1Cl [Oxadiazon] | 400 | 400 |
| CCOC(=O)COc1cc(-c2nn(C)c(OC(F)F)c2Cl)c(F)cc1Cl [Pyraflufen-ethyl] | 400 | 400 |
| C=CCOC(=O)C(C)(C)OC(=O)c1cc(-n2c(=O)cc(C(F)(F)F)n(C)c2=O)ccc1Cl [Butafenacil] | 25 | 25 |
| CC(C)=C1OC(=O)N(c2cc(OC3CCCC3)c(Cl)cc2F)C1=O [Pentoxazone] | 400 | 400 |
| C#CCN(C)c1c(C#N)cnn1-c1nn2c(c1Cl)CCCC2 [Pyraclonil] | 400 | 400 |
| C#CCN1C(=O)COc2cc(F)c(N3C(=O)C4=C(CCCC4)C3=O)cc21 [Flumioxazin] | 25 | 25 |
| CS(=O)(=O)NC(=O)c1cc(Oc2ccc(C(F)(F)F)cc2Cl)ccc1[N+](=O)[O-] [Fomesafen] | 400 | 400 |
| Cc1nn(-c2cc(NS(C)(=O)=O)c(Cl)cc2Cl)c(=O)n1C(F)F [Sulfentrazone] | 400 | 400 |
| CC(C)N(C)S(=O)(=O)NC(=O)c1cc(-n2c(=O)cc(C(F)(F)F)n(C)c2=O)c(F)cc1Cl [Saflufenacil] | 25 | 25 |
